Measurements taken from ChEMBL document CHEMBL5620428, “Discovery of tetrahydroisoquinolineindole derivatives as first dual PRMT5 inhibitors/hnRNP E1 upregulators: Design, synthesis and biological evaluation” (Eur J Med Chem, 2023).
Activity calls are given as the source filed them. No cut-off for these calls is given here.

Columns and labels:
[1] = system: A549; assay: Antiproliferative activity against human A549 cells assessed as reduction in cell viability at 25 uM incubated for 24 hrs by SRB assay; format: functional, cell-based
[2] = biological target: Protein arginine N-methyltransferase 5 (Homo sapiens, UniProt O14744); assay: Inhibition of PRMT5 (unknown origin)
Chain of Protein arginine N-methyltransferase 5 (O14744 whole entry): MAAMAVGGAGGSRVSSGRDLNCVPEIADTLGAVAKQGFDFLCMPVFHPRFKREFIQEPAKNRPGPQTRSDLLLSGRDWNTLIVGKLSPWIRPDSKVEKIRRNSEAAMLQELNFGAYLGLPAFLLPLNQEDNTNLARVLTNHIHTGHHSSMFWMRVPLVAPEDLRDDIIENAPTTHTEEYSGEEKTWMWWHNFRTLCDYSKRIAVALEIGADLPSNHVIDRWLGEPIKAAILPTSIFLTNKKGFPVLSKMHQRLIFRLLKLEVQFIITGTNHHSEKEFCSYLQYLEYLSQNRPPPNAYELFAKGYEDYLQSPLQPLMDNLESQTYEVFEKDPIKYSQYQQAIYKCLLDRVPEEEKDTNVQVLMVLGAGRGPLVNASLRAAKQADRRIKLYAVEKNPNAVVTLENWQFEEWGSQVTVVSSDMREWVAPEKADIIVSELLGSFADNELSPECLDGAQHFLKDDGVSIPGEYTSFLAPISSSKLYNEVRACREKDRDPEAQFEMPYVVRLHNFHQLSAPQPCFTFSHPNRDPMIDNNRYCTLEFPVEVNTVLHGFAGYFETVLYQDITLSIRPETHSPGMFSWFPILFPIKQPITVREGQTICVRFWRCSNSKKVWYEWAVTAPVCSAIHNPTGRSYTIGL

[3] = Half life in Sprague-Dawley rat at 10 mg/kg, po measured upto 24 hrs by LC-MS/MS analysis; format: ADME, organism-based; settings: in vivo
[4] = Metabolic stability in rat liver microsome assessed as half life measured upto 4 hrs in presence of NADPH by LC-MS/MS analysis; format: ADME; settings: liver microsomes
[5] = Tmax in Sprague-Dawley rat at 10 mg/kg, po measured upto 24 hrs by LC-MS/MS analysis; format: ADME, organism-based; settings: in vivo
[6] = AUC (0 to t) in Sprague-Dawley rat at 10 mg/kg, po measured upto 24 hrs by LC-MS/MS analysis; format: ADME, organism-based; settings: in vivo
[7] = AUC (0 to infinity) in Sprague-Dawley rat at 10 mg/kg, po measured upto 24 hrs by LC-MS/MS analysis; format: ADME, organism-based; settings: in vivo
[8] = Metabolic stability in human liver microsome assessed as half life measured upto 4 hrs in presence of NADPH by LC-MS/MS analysis; format: ADME; settings: liver microsomes
[9] = Cmax in Sprague-Dawley rat at 10 mg/kg, po measured upto 24 hrs by LC-MS/MS analysis; format: ADME, organism-based; settings: in vivo
[10] = system: MCF7; assay: Antiproliferative activity against human MCF7 cells assessed as inhibition of cell growth incubated for 24 hrs by SRB assay; format: functional, cell-based; settings: MCF7, 24 h
[11] = system: HepG2; assay: Antiproliferative activity against human HepG2 cells assessed as inhibition of cell growth incubated for 24 hrs by SRB assay; format: functional, cell-based; settings: HepG2, 24 h
[12] = system: A549; assay: Upregulation of hnRNP E1 gene expression in human A549 cells at 12.5 to 50 uM incubated for 24 hrs by Western blot analysis; format: functional, cell-based; settings: dose 12.5-50 µM
[13] = biological target: Protein arginine N-methyltransferase 1 (Homo sapiens, UniProt Q99873); assay: Inhibition of PRMT1 (unknown origin)
Chain of Protein arginine N-methyltransferase 1 (Q99873 whole entry): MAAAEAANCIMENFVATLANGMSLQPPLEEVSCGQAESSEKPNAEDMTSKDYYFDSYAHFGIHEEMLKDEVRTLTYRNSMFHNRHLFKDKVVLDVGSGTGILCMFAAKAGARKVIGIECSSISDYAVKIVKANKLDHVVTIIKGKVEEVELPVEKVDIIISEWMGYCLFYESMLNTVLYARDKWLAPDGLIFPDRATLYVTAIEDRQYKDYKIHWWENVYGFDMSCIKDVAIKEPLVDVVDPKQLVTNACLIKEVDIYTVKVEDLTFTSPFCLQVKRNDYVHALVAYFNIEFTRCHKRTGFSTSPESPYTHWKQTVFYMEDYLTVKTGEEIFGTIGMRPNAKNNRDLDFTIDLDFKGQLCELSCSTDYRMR

[14] = system: A549; assay: Induction of apoptosis in human A549 cells transfected in hnRNP E1 siRNA assessed as reduction in cell number incubated for 24 hrs by Hoechst 33258 staining based analysis; format: functional
[15] = system: A549; assay: Inhibition of cell migration human A549 cells transfected with hnRNP E1 siRNA incubated upto 12 hrs by wound healing assay; format: functional, cell-based
[16] = system: A549; assay: Inhibition of cell migration human A549 cells assessed as decrease in migration distance at 12.5 to 25 uM incubated upto 12 hrs by wound healing assay; format: functional, cell-based; settings: dose 12.5-25 µM
[17] = system: A549; assay: Antiproliferative activity against human A549 cells assessed as inhibition of cell growth incubated for 24 hrs by SRB assay; format: functional, cell-based; settings: A549, 24 h
[18] = system: MDA-MB-231; assay: Antiproliferative activity against human MDA-MB-231 cells assessed as inhibition of cell growth incubated for 24 hrs by SRB assay; format: functional, cell-based; settings: MDA-MB-231, 24 h
[19] = biological target: T1, Histone-arginine methyltransferase CARM1 (Homo sapiens, UniProt Q86X55); assay: Inhibition of PRMT4 (unknown origin)
T1 sequence (Q86X55 whole entry): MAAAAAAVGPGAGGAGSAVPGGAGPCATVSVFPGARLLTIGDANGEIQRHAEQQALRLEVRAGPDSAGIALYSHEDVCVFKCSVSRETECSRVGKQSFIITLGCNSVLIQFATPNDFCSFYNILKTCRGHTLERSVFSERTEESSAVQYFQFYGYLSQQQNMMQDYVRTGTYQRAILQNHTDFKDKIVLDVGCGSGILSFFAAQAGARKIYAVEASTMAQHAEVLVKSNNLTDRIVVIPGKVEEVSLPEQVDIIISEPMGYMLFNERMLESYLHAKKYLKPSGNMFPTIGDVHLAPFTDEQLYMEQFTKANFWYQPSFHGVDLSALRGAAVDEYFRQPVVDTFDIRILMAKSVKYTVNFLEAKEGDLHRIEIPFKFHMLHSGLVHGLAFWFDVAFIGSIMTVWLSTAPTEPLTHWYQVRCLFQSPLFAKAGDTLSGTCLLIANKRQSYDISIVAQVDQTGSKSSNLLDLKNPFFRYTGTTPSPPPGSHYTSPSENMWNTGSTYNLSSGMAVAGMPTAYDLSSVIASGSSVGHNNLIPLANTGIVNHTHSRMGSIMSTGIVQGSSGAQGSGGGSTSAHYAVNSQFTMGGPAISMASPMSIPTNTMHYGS

[20] = system: A549; assay: Induction of apoptosis in human A549 cells at 2.5 to 50 uM incubated for 24 hrs by Hoechst 33342 staining based analysis; format: functional; settings: dose 2.5-50 µM
[21] = Antiproliferative activity against human L02 cells assessed as inhibition of cell growth incubated for 24 hrs by SRB assay; format: toxicity, cell-based
[22] = system: A549; assay: Induction of apoptosis in human A549 cells assessed as nuclear fragmentation incubated for 24 hrs by Hoechst 33342 staining based analysis; format: functional, cell-based; settings: dose 12.5-50 µM
[23] = system: A549; assay: Anticancer activity against human A549 cells assessed as decrease in cell number incubated for 24 hrs by SRB assay; format: functional, cell-based; settings: dose 12.5-50 µM

SMILES	Activity [1]	IC50 [2]	further results
O[C@H](CN1CCc2cc(Br)ccc2C1)Cn1ccc2ccc(Br)cc21	Active	2.44 µM	–
N#Cc1cn(C[C@H](O)CN2CCc3ccccc3C2)c2ccccc12	Active	2.1 µM	–
Cc1ccc2c(ccn2C[C@H](O)CN2CCc3ccccc3C2)c1	Active	0.62 µM	–
O=C(NC[C@H](O)CN1CCc2ccccc2C1)c1ccc2c(c1)CCN(C(=O)c1ccc(Br)cc1)C2	–	0.008 µM	half-life [3]: 139 min; half-life [4]: 10.4 min; Tmax [5]: 18 min; AUC(0-t) at 24 h [6]: 223 ng·h/mL; AUC(0-inf) [7]: 233 ng·h/mL; half-life [8]: 86.9 min; Cmax [9]: 77.1 ng/mL
N#CCc1cn(C[C@H](O)CN2CCc3ccccc3C2)c2ccccc12	Active	4.12 µM	–
Cc1cc2ccccc2n1C[C@H](O)CN1CCc2ccccc2C1	Active	1.3 µM	–
Cc1cccc2c1ccn2C[C@H](O)CN1CCc2ccccc2C1	Active	1.8 µM	–
COc1cccc2c1ccn2C[C@H](O)CN1CCc2ccccc2C1	Active	4.58 µM	–
O[C@H](CN1CCc2ccccc2C1)Cn1ccc2ccccc21	Active	0.85 µM	–
Cc1cc2cc(F)ccc2n1C[C@H](O)CN1CCc2ccccc2C1	Active	22.5 µM	–
Cc1ccc2ccn(C[C@H](O)CN3CCc4ccccc4C3)c2c1	Active	6.4 µM	–
O[C@H](CN1CCc2ccccc2C1)Cn1ccc2cc(F)ccc21	Active	18.8 µM	–
COc1ccc2c(c1)CCN(C[C@@H](O)Cn1ccc3ccc(Br)cc31)C2	Active	31.8 µM	–
COc1ccc2c(c1)CCN(C[C@@H](O)Cn1ccc3cc(OC)ccc31)C2	Active	36.3 µM	–
COc1ccc2c(ccn2C[C@H](O)CN2CCc3cc(O)ccc3C2)c1	Active	0.12 µM	–
N#Cc1cccc2c1ccn2C[C@H](O)CN1CCc2ccccc2C1	Active	5.01 µM	–

SMILES	Activity [1]	IC50 [2]	further results
N#Cc1ccc2c(ccn2C[C@H](O)CN2CCc3ccccc3C2)c1	Active	12 µM	–
Cc1cn(C[C@H](O)CN2CCc3ccccc3C2)c2ccccc12	Active	3.22 µM	–
Oc1ccc2c(c1)CCN(C[C@@H](O)Cn1ccc3ccc(Br)cc31)C2	Active	–	IC50 [10]: 28.9 µM; IC50 [11]: 58.1 µM; Activity [12]: Active; IC50 [13]: 10.2 µM; Activity [14]: Active; Activity [15]: inactive; half-life [4]: 4.7 min; Activity [16]: Active; IC50 [17]: 14.2 µM; IC50 [18]: 21.3 µM; IC50 [19]: > 20 µM; Activity [20]: 68%; IC50 at 24 h [21]: > 100 µM; half-life [8]: 21.8 min; Activity [22]: Dose-Dependent Effect; Activity [23]: Dose-Dependent Effect
O[C@H](CN1CCc2ccccc2C1)Cn1ccc2c(F)cccc21	Active	1.7 µM	–
COc1ccc2c(ccn2C[C@H](O)CN2CCc3ccc(Br)cc3C2)c1	Active	33.2 µM	–
O[C@H](CN1CCc2ccccc2C1)Cn1ccc2cc(Cl)ccc21	Active	8.2 µM	–
N#Cc1ccc2ccn(C[C@H](O)CN3CCc4ccccc4C3)c2c1	Active	1.21 µM	–
O[C@H](CN1CCc2ccccc2C1)Cn1ccc2ccc(Br)cc21	Active	0.38 µM	IC50 [10]: 25.2 µM; IC50 [11]: 16.8 µM; IC50 [17]: 29.5 µM; IC50 [18]: 60.1 µM; IC50 at 24 h [21]: > 100 µM
COc1ccc2c(ccn2C[C@H](O)CN2CCc3cc(Br)ccc3C2)c1	Active	51.3 µM	–
CC1c2ccccc2CCN1C[C@@H](O)Cn1ccc2ccc(Br)cc21 (some centres undefined)	Active	–	–
COc1ccc2c(ccn2C[C@H](O)CN2CCc3ccccc3C2C)c1 (some centres undefined)	Active	14.8 µM	–
COc1cc2c(cc1OC)CN(C[C@@H](O)Cn1ccc3ccc(Br)cc31)CC2	Active	61.4 µM	–
O[C@H](CN1CCc2ccc(Br)cc2C1)Cn1ccc2ccc(Br)cc21	Active	3.25 µM	–
CC(=O)c1cn(C[C@H](O)CN2CCc3ccccc3C2)c2ccccc12	Active	2.52 µM	–
COc1ccc2c(ccn2C[C@H](O)CN2CCc3cc(OC)c(OC)cc3C2)c1	Active	40.4 µM	–
O[C@H](CN1CCc2ccccc2C1)Cn1ccc2ccc(Cl)cc21	Active	0.53 µM	–
